Here are results for 1 molecule from patent publication US7384733B1, “Interface patch clamping” (Xention Discovery Limited, priority 1998, dated 2008).

The assay has as its target potassium currents (Kv1.1) in MK1 cell (Mus musculus, UniProt P16388). Particulars: TEA 5 mM in extracellular solution in the dish, then washing; FIG. 21.

Sequence of potassium currents (Kv1.1) in MK1 cell (P16388 whole entry): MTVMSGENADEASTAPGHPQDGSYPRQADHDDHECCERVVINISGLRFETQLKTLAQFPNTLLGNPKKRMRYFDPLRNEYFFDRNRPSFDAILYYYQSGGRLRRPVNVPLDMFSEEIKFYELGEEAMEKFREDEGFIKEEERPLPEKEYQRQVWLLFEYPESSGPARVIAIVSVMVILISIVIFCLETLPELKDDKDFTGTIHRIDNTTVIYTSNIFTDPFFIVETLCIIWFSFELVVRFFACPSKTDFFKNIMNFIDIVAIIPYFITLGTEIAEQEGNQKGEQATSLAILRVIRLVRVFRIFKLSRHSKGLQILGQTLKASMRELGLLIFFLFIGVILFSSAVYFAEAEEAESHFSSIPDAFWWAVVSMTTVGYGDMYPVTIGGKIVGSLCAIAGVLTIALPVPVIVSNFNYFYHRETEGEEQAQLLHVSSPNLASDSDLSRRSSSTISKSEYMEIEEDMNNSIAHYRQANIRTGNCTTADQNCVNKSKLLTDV
From the text: The solution may be exchanged readily by perfusion of the dish and this allows multiple drug additions and dose response curves to be obtained while recording from the one cell.
The holding potential was −60 mV and (a) and (b) show outward potassium currents (Kv1.1) in response to a voltage step to +30 mV.

Turning to `CC[N+](CC)(CC)CC` [TEA, tetraethylammonium], the “effect on the potassium current recorded from MK1 cell in whole cell recording mode” value is given as “blocking effect of TEA was reversed by washing”.
